SMILES strings stand for the structures. Read-outs that look alike come from different tables or passages of the source.

Among the data in US9938292B2 (GUANGDONG ZHONGSHENG PHARMACEUTICAL CO., LTD, priority 2014, dated 2018) are IC50 values, retold here.

The assay has as its system Hedgehog signaling pathway. The experiment in a line: Gli-Luc luciferase reporter gene assay in C3H10T1/2/Gli-Luc cells under Shh-N stimulation. It is filed as cell-based. The note with it: luciferase RLU, read-out: biological activity: IC50 of the inhibitory activities of compounds on the hedgehog pathway. Summed up: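 IC50 derived by curve fitting of luciferase RLU against log compound concentration. Stable C3H10T1/2/Gli-Luc cells, seeded overnight, were co-treated 24 h with serially diluted compound (7 points, duplicate wells) and 30 nM Shh-N-containing HEK293 conditioned medium before lysis and luminescence readout.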
(In a reporter assay the amount or activity of a reporter protein is the signal.)

One may read the IC50 as the concentration at which inhibition is half-maximal. For the molecule `COc1c(-c2ccc(N3C[C@@H](C)O[C@@H](C)C3)cc2F)cnc2c(-c3ccc(C#N)cc3)cccc12` [Embodiment 168, 4-(3-(4-((2S,6R)-2,6-dimethylmorpholino)-2-fluorophenyl)-4-methoxyquinolin-8-yl) benzonitrile], the IC50 (Mus musculus, C3H 10T1/2, 24 h) is no more than 50 nM. For `COc1c(-c2ccc(N3C[C@@H](C)O[C@@H](C)C3)cc2C)cnc2c(-c3ccc(C#N)cc3)cccc12` [Embodiment 169], the IC50 (Mus musculus, C3H 10T1/2, 24 h) was no more than 50 nM. For the molecule `COc1c(-c2ccc(N3C[C@@H](C)O[C@@H](C)C3)cc2Cl)cnc2c(-c3ccc(C#N)cc3)cccc12` [Embodiment 170], the IC50 (Mus musculus, C3H 10T1/2, 24 h) is no more than 50 nM. Still for that read-out and setting: then `COc1c(-c2ccc(N3C[C@@H](C)O[C@@H](C)C3)cn2)cnc2c(-c3ccc(C#N)cc3)cccc12` [Embodiment 171], with no more than 50 nM; and `COc1c(-c2ccc(N3C[C@@H](C)O[C@@H](C)C3)c(F)c2)cnc2c(-c3ccc(C#N)cc3)cccc12` [Embodiment 172], with no more than 50 nM.

Turning to `COc1c(-c2ccc(N3C[C@@H](C)O[C@@H](C)C3)c(Cl)c2)cnc2c(-c3ccc(C#N)cc3)cccc12` [Embodiment 173], the IC50 (Mus musculus, C3H 10T1/2, 24 h) fell in the range of 100 to 500 nM. As to `COc1c(-c2ccc(N3C[C@@H](C)O[C@@H](C)C3)c(C)c2)cnc2c(-c3ccc(C#N)cc3)cccc12` [Embodiment 174], the IC50 (Mus musculus, C3H 10T1/2, 24 h) was in the range of 100 to 500 nM. With `COc1c(-c2ccc(N3C[C@@H](C)O[C@@H](C)C3)nn2)cnc2c(-c3ccc(C#N)cc3)cccc12` [Embodiment 175, 4-(3-(6-((2S,6R)-2,6-dimethylmorpholino)pyridazin-3-yl)-4-methoxyquinolin-8-yl) benzonitrile], the IC50 (Mus musculus, C3H 10T1/2, 24 h) was in the range of 100 to 500 nM.

Regarding `COc1c(-c2cnc(N3C[C@@H](C)O[C@@H](C)C3)nc2)cnc2c(-c3ccc(C#N)cc3)cccc12` [Embodiment 176, 4-(3-(2-((2S,6R)-2,6-dimethylmorpholino)pyrimidin-5-yl)-4-methoxyquinolin-8-yl) benzonitrile], the IC50 (Mus musculus, C3H 10T1/2, 24 h) is no more than 50 nM. Take `COc1c(-c2cnc(N3C[C@@H](C)O[C@@H](C)C3)cn2)cnc2c(-c3ccc(C#N)cc3)cccc12` [Embodiment 177]: the IC50 (24 h) is no more than 50 nM. On to `COc1c(-c2ccc(C(=O)N3C[C@@H](C)O[C@@H](C)C3)s2)cnc2c(-c3ccc(C#N)cc3)cccc12` [Embodiment 178, 4-(3-(5-((2S,6R)-2,6-dimethylmorpholine-4-carbonyl)thiophen-2-yl)-4-methoxyquinolin-8-yl)benzonitrile], for which the concentration for half-maximal inhibition (IC50) (Mus musculus, C3H 10T1/2, 24 h) fell in the range of 100 to 500 nM. As for `COc1c(-c2csc(N3C[C@@H](C)O[C@@H](C)C3)n2)cnc2c(-c3ccc(C#N)cc3)cccc12` [Embodiment 179, 4-(3-(2-(2,6-dimethylmorpholin-4-yl)thiazol-4-yl)-4-methoxyquinolin-8-yl) benzonitrile], the IC50 (Mus musculus, C3H 10T1/2, 24 h) lay in the range of 500 to 1000 nM. Same read-out and setting: to `CCC(=O)N1[C@H](C)CN(c2ccc(-c3cnc4c(-c5ccc(C#N)cc5)cccc4c3OC)cc2)C[C@@H]1C` [Embodiment 180, 4-(3-(4-((3S, 5R)-3,5-dimethyl-4-propionylpiperazin-1-yl)phenyl)-4-methoxyquinolin-8-yl)benzonitrile] belongs no more than 50 nM. For `COc1c(-c2ccc(N3C[C@@H](C)N(C(=O)c4ccccc4)[C@@H](C)C3)cc2)cnc2c(-c3ccc(C#N)cc3)cccc12` [Embodiment 181], the IC50 (Mus musculus, C3H 10T1/2, 24 h) was no more than 50 nM. As to `COC(=O)N1[C@H](C)CN(c2ccc(-c3cnc4c(-c5ccc(C#N)cc5)cccc4c3OC)cc2)C[C@@H]1C` [Embodiment 182], the IC50 (Mus musculus, C3H 10T1/2, 24 h) was no more than 50 nM. The same measure, in the same setting: then `CCOC(=O)N1[C@H](C)CN(c2ccc(-c3cnc4c(-c5ccc(C#N)cc5)cccc4c3OC)cc2)C[C@@H]1C` [Embodiment 183], with 50 to 100 nM; and `CCCOC(=O)N1[C@H](C)CN(c2ccc(-c3cnc4c(-c5ccc(C#N)cc5)cccc4c3OC)cc2)C[C@@H]1C` [Embodiment 184], with 50 to 100 nM. Still for that read-out and setting: then `COc1c(-c2ccc(N3C[C@@H](C)N(C(=O)C(C)(C)O)[C@@H](C)C3)cc2)cnc2c(-c3ccc(C#N)cc3)cccc12` [Embodiment 185], with 100 to 500 nM; and `COc1c(-c2ccc(N3C[C@@H](C)N(C(=O)c4ccccn4)[C@@H](C)C3)cc2)cnc2c(-c3ccc(C#N)cc3)cccc12` [Embodiment 186], with no more than 50 nM. For `COc1c(-c2ccc(N3C[C@@H](C)N(C(=O)c4ncc[nH]4)[C@@H](C)C3)cc2)cnc2c(-c3ccc(C#N)cc3)cccc12` [Embodiment 187], under “Mus musculus, C3H 10T1/2, 24 h”, the IC50 is no more than 50 nM. Regarding `COc1c(-c2ccc(N3C[C@@H](C)N(S(C)(=O)=O)[C@@H](C)C3)nc2)cnc2c(-c3ccc(C#N)cc3)cccc12` [Embodiment 188, 4-(3-(6-(4-methylsulfonyl-3,5-dimethylpiperazin-1-yl)pyridin-3-yl)-4-methoxyquinolin-8-yl)benzonitrile], the IC50 (Mus musculus, C3H 10T1/2, 24 h) was no more than 50 nM. On to `COc1c(-c2ccc(N3C[C@@H](C)N(C(=O)CO)[C@@H](C)C3)nc2)cnc2c(-c3ccc(C#N)cc3)cccc12` [Embodiment 189, 4-(3-(6-(4-(2-hydroxyacetyl)-3,5-dimethylpiperazin-1-yl)pyridin-3-yl)-4-methoxyquinolin-8-yl)benzonitrile], for which, for the setting “Mus musculus, C3H 10T1/2, 24 h”, the IC50 is no more than 50 nM. With `COc1c(-c2ccc(N3Cc4nnc(C(F)(F)F)n4C(C)C3)cc2)cnc2c(-c3ccc(C#N)cc3)cccc12` (stereo not shown) [Embodiment 190, 4-(4-methoxy-3-(4-(5-methyl-3-(trifluoromethyl)-5,6-dihydro-[1,2,4]triazolo[4,3-a]pyrazin-7(8H)-yl)phenyl)quinolin-8-yl)benzonitrile], the IC50 (Mus musculus, C3H 10T1/2, 24 h) was no more than 50 nM.

Take `COc1c(-c2ccc(N3CC(C)N(C(C)=O)C(C(C)(C)O)C3)cc2)cnc2c(-c3ccc(C#N)cc3)cccc12` (stereo not shown) [Embodiment 191, 4-(3-(4-(4-acetyl-3-(2-hydroxypropan-2-yl)-5-methylpiperazin-1-yl)phenyl)-4-methoxyquinolin-8-yl)benzonitrile]: the IC50 (Mus musculus, C3H 10T1/2, 24 h) is no more than 50 nM. The same measure, in the same setting: then `COc1c(-c2ccc(N3C[C@@H](C(C)(C)O)O[C@@H](C)C3)cc2)cnc2c(-c3ccc(C#N)cc3)cccc12` [Embodiment 192, 4-(3-(4-((2S, 6S)-2-(2-hydroxypropan-2-yl)-6-methylmorpholino)phenyl)-4-methoxyquinolin-8-yl)benzonitrile], with no more than 50 nM; and `COc1c(-c2ccc(N3C[C@@H](C)N(C(=O)C(C)F)[C@@H](C)C3)nc2)cnc2c(-c3ccc(C#N)cc3)cccc12` (stereo partly drawn) [Embodiment 193, 4-(3-(6-((3S, 5R)-4-(2-fluoropropanoyl)-3,5-dimethylpiperazin-1-yl)pyridin-3-yl)-4-methoxyquinolin-8-yl)benzonitrile], with 100 to 500 nM; and `COc1c(-c2ccc(N3C[C@@H](C)N(C(=O)C(C)(F)F)[C@@H](C)C3)nc2)cnc2c(-c3ccc(C#N)cc3)cccc12` [Embodiment 194], with no more than 50 nM. For `COc1c(-c2ccc(N3C[C@@H](C)N(C(=O)C(C)O)[C@@H](C)C3)nc2)cnc2c(-c3ccc(C#N)cc3)cccc12` (stereo partly shown) [Embodiment 195], under “Mus musculus, C3H 10T1/2, 24 h”, the 50% inhibitory concentration (IC50) lay in the range of 50 to 100 nM.

In the case of `COC(=O)N1[C@H](C)CN(c2ccc(-c3cnc4c(-c5ccc(C#N)cc5)cccc4c3OC)cn2)C[C@@H]1C` [Embodiment 196], the IC50 (Mus musculus, C3H 10T1/2, 24 h) was in the range of 100 to 500 nM. Turning to `COc1c(-c2ccc(N3C[C@@H](C)N(C(=O)CC(F)(F)F)[C@@H](C)C3)nc2)cnc2c(-c3ccc(C#N)cc3)cccc12` [Embodiment 197], under “Mus musculus, C3H 10T1/2, 24 h”, the IC50 fell in the range of 500 to 1000 nM. Same read-out and setting: then `COc1c(-c2ccc(N3C[C@@H](C)N(C(=O)CN)[C@@H](C)C3)nc2)cnc2c(-c3ccc(C#N)cc3)cccc12` [Embodiment 198], with 50 to 100 nM.
